Experimental data as given in US20250295119A1, “SPHERICAL NAN[…] FROM TMGMV IMPROVE SOIL TRANSPORT OF SMALL, HYDROPHOBIC AGROCHEMICALS” (THE REGENTS OF THE UNIVERSITY OF CALIFORNIA, priority 2022, published 2025).

Legend:
C. elegans [1] = test: Pluronic F127 gel burrowing assay with samples first passed through a 10 cm soil column; format: in vivo, Caenorhabditis elegans; conditions: 10 μM ivermectin, collected fractions
Protocol: (§1) As a final test, Applicant delivered IVN-SNPs against C. elegans (FIG. 4). Nematodes were incubated with SNPs, IVN-SNPs, and free IVN for 90 minutes in solution. In parallel, the same (IVN-)SNPs were passed through a soil column and collected before treating the C. elegans in solution. For all samples, Applicant performed a modified gel burrowing assay (FIG. 4A) by transferring the nematodes and casting them in Pluronic F127 in a well-plate^23. The surface was coated with E. coli OP-50 lysate to attract the nematodes, and the number of C. elegans which penetrated to the surface were counted. Nematode mobility was quantified based on their total track coverage using edge detection (FIGS. 4B-4D, FIG. 13, FIG. 14). The mobility was then estimated using the following equation: […]
Magic Topsoil (Michigan Peat) was weighed and packed into a cylindrical column fitted with miracloth at the bottom. […] The band intensity of the fractions on SDS PAGE was determined using ImageJ. […]
Using the optimized Pluronic concentration of 26% w/w previously reported, Pluronic F127 solutions were stored at 4° C. to dissolve and stay soluble (Lesanpezeshki, L. et al., Scientific Reports 2019). […] After 2 hours, an 11×11 area scan at 4× magnification (Keyence BZ-X800 Fluorescence Microscope) was taken for each well. […]

C. elegans [2] = test: Pluronic F127 gel burrowing assay after treatment of C. elegans in solution; format: in vivo, Caenorhabditis elegans; conditions: 10 μM ivermectin (normalized), 90 minutes incubation in solution, no soil passage
Protocol: as §1
Using the optimized Pluronic concentration of 26% w/w previously reported, Pluronic F127 solutions were stored at 4° C. to dissolve and stay soluble (Lesanpezeshki, L. et al., Scientific Reports 2019). […] After 2 hours, an 11×11 area scan at 4× magnification (Keyence BZ-X800 Fluorescence Microscope) was taken for each well. The number of nematodes on the surface were counted manually and the area fraction of their tracks was determined by edge detection and binary image transformation in ImageJ.

With ivermectin the “reduction in surface velocity after passing through a soil column” value (C. elegans [1]) was “no reduction”, the “reduction in the number of nematodes after passing through a soil column” value (C. elegans [1]) was “no reduction” and the “reduction in surface velocity” value (C. elegans [2]) was 4.5 fold. For the same substance, the “reduction in the number of nematodes on the surface” value (C. elegans [2]) was 6 fold.
